Data: paper PMC8130708 (Journal of medicinal chemistry, 2021)
Entries after “also recorded” stand apart in the source; their conditions may differ.

What was measured:
NSD2-PWWP1 [1] = molecular target: T1, NSD2-PWWP1 (Homo sapiens, UniProt O96028); type: binding; settings: for potency on NSD2-PWWP1, SAR statement in words: relative to parent compound 2 or 3, Tables 1 and 2 (images, DSLS/SPR)
T1 sequence (O96028 222-286 limits assumed): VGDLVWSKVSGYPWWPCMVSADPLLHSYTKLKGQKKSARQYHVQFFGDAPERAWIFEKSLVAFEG

PWWP domains = settings: DSLS
NSD2-PWWP1 [2] = molecular target: T2, NSD2-PWWP1 (Homo sapiens, UniProt O96028); experiment: Differential static light scattering; type: binding; settings: read-out: increase of melting temperature of N-terminal PWWP domain of NSD2
T2 sequence (O96028 211-350): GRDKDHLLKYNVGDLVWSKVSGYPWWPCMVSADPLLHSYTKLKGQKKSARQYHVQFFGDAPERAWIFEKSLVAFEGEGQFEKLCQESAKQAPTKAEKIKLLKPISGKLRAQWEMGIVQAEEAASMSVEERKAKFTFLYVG

| Compound | potency on NSD2-PWWP1, SAR statement in words (NSD2-PWWP1 [1]) | further results |
| --- | --- | --- |
| N#Cc1ccc(C(=O)N2CCCC2c2ccccc2)cc1 (centres unmarked) [Compound 2a] | improved potency | – |
| N#Cc1ccc(C(=O)N(Cc2cccs2)C2CC2)cc1 [Compound 3f] | – | binding / effect on melting temperature in a panel of 10 PWWP domains (PWWP domains; compound at 100 μM (Figure 2C)): only bound NSD2-PWWP1; also recorded: only affects the melting temperature of NSD2-PWWP1 |
| N#Cc1ccc(C(=O)NCc2ccc(F)cc2)cc1 [Compound 3b] | much weaker or completely inactive | – |
| Cc1ccc(C(=O)N2CCCC2c2ccc(Cl)cc2)cc1 (centres unmarked) [Compound 2i] | abolished activity | – |
| O=C(c1ccccc1)N1CCCC1c1ccccc1 (centres unmarked) [Compound 2h] | abolished activity | – |
| N#Cc1ccc(C(C(N)=O)N2CCC2c2ccc(Cl)cc2)cc1 (centres unmarked) [Compound 1] | – | ΔTm at 400 µM (NSD2-PWWP1 [2]): 4 °C; binding to six other PWWP-containing proteins (PWWP domains; compound at 400 μM (Table S2)): did not bind |
| COc1ccc(C2CCCN2C(=O)c2ccc(C#N)cc2)cc1 (centres unmarked) [Compound 2b] | no significant effect | – |
| N#Cc1ccc(C(=O)N(Cc2ccc(F)cc2)C2CC2)cc1 [Compound 3] | – | fold more potent than compound 1 (NSD2-PWWP1 [1]; ratio of SPR Kd values): 6; fold more potent than compound 2 (NSD2-PWWP1 [1]; ratio of SPR Kd values): 25 |
| CN(Cc1ccc(F)cc1)C(=O)c1ccc(C#N)cc1 [Compound 3a] | much weaker or completely inactive | – |
